According to US20170191031A1, “SYSTEMS AND METHODS FOR STEM CELL DIFFERENTIATION” (University of Oslo, priority 2014, published 2017):
Non-standard residues stand in square brackets, D forms with d. Residues, ends and D or L forms follow the SMILES beside them. *: point of attachment. Hexanoyl = CCCCCC(=O)*; Ahx = NCCCCCC(=O)O

What was measured:
Format in all cases: cell-based, human
hESC line H1 [1] = test: Phase I definitive endoderm differentiation, FOXA2/SOX17 immunofluorescence and cell counting; settings: 24 hour treatment, Phase I endpoint 48 hours, CHIR99021 3 μM, BIO 1 μM, Wnt3a 50 ng/ml
Text: (§1) The scale bars represent 100 μm.
as §1

[2] = tested on: hESC lines 207 and 360, hiPSC lines Detroit; test: Phase I definitive endoderm differentiation of other pluripotent lines
Procedure: Cells were seeded onto Matrigel coated 12 well plates in E8 medium at a 1:3-1:4 split ratio, and allowed to adhere for 24 hours at 37° C./5% CO2. It should be noted the optimal cell density for each line needs to be established. The cells were washed with phosphate buffered saline (PBS) before being treated with differentiation media. The differentiation protocol utilises similar base media to a well-established differentiation protocol (Hay et al., Proc Natl Acad Sci USA 105, 12301-12306 2008), with replacement of all growth factors with small molecules, and minor adjustments in timing. The protocol incorporates several stages (FIG. 1) utilising different small molecules.
(§2) Phase I of differentiation consists of a 24 hour treatment with RPMI-B27±insulin (RPMI 1640 GlutaMAX+B27 supplement, both from Life Technologies) plus 3-4 μM CHIR99021 (Stemgent), followed by a 24 hour treatment with RPMI-B27 alone. Phase II consists of 5 days of treatment with Knockout DMEM containing 20% Knockout Serum Replacement, 2 mM GlutaMAX, 100 μM 2-mercaptoethanol, 1×MEM non-essential amino acids (Life Technologies) and 1% DMSO (Sigma-Aldrich). Phase III consists of 10 days of treatment with Leibovitz L-15 media containing 8.3% tryptose phosphate broth, 10 μM hydrocortisone 21-hemisuccinate, 50 μg/ml sodium-L-ascorbate, 100 nM dexamethasone (all from Sigma-Aldrich), 0.58% insulin-transferrin-selenium (ITS), 2 mM GlutaMAX (all from Life Technologies), 8.3% foetal bovine serum (Lonza), and 100 nM Dihexa (kind gift from Prof. Joseph Harding, Washington State University). During Phases II and III cells are fed every 48 hours. Cells were photographed during differentiation using a Zeiss phase contrast microscope and ZEN software. The scale bars represent 100 μm.
Cells were washed with PBS before being fixed with a 10 minute treatment of ice cold methanol. Fixed cells were washed in 0.1% PBS-T: PBS containing 0.1% Tween 20 (Sigma-Aldrich). […] Cells were imaged using a Zeiss Observer Fluorescence Microscope and Axiovision imaging software. […]
(§3) Immuno-stained cells were quantified for expression of stage specific markers by manual counting. For Phase I, FOXA2 and SOX17 were counted separately. For Phase II, cells were scored positively if the nucleus was stained for HNF4A and the cytoplasm was stained for AFP. For Phase III, cells were scored positively if the nucleus was HNF4A positive and the cytoplasm was ALB positive. Phase III cells were also quantified for AFP and A1AT staining and were counted as positive if the cytoplasm was stained. […] A minimum of 10 fields of view were quantified, with a minimum of 250 cells counted per field of view. Percentages are presented as the average of all field quantifications, plus or minus the standard deviation across all fields.

hESC line H1 [3] = test: Phase I gene expression by TaqMan RT-qPCR
Procedure: as §2, with “Cells were photographed during differentiation using a Zeiss phase contrast microscope and ZEN software. The scale bars represent 100 μm.” left out
RNA was isolated from cells using TRIzol according to manufacturer's instructions and quantified using a spectrophotometer (NanoDrop). cDNA was prepared using the High Capacity Reverse Transcription kit and a thermal cycler (both from Life Technologies). […] Expression levels were quantified relative to ACTB and normalised to undifferentiated pluripotent control samples or definitive endoderm cells as specified. […]

[4] = tested on: hESC line H1 and hiPSC line Detroit; test: Definitive endoderm differentiation in 3D alginate scaffold, TaqMan; settings: cells encapsulated in alginate scaffold; Phase I conditions RPMI-B27+Chir
Procedure: Differentiation of the hESC line H1 and the hiPSC line Detroit was performed in a 3D environment by encapsulating the cells in an alginate scaffold. The cells were cultured using the same conditions as in 2D with the exception that the spheres were cultured for 6 days in human ES media, then transferred to Phase I conditions (RPMI-B27+Chir). All pluripotency marks were maintained as assessed by TaqMan, to the point prior to transition to Phase I. The ability of hPSCs to be directed to definitive endoderm (DE) in 3D was assessed via the DE marks SOX17 and FOXA2. […] Further differentiation through phases II and III is performed as described above.

hepatic progenitors = test: Phase III hepatocyte maturation, optimisation of concentrations; settings: established in HepatoZYME medium; morphology and function
Procedure: as §2, with “Phase III consists of 10 days of treatment with Leibovitz L-15 media containing 8.3% tryptose” left out

[5] = tested on: hESC line 207 and hiPSC Detroit RA, RB, RC derived definitive endoderm; test: Phase II hepatic specification of other pluripotent lines; settings: all lines tested; Phase II conditions, 5 days
Procedure: Phase I of differentiation consists of a 24 hour treatment with RPMI-B27±insulin (RPMI 1640 GlutaMAX+B27 supplement, both from Life Technologies) plus 3-4 μM CHIR99021 (Stemgent), followed by a 24 hour treatment with RPMI-B27 alone. Phase II consists of 5 days of treatment with Knockout DMEM containing 20% Knockout Serum Replacement, 2 mM GlutaMAX, 100 μM 2-mercaptoethanol, 1×MEM non-essential amino acids (Life Technologies) and 1% DMSO (Sigma-Aldrich). […]
Cells were washed with PBS before being fixed with a 10 minute treatment of ice cold methanol. […] Cells were imaged using a Zeiss Observer Fluorescence Microscope and Axiovision imaging software. […]
as §3

CYP1A2 = test: Cytochrome P450 induction, P450-Glo CYP1A2; settings: 100 μM, 72 hours
Procedure: Induction of cytochrome P450 activity was assessed in both small molecule and growth factor derived HLCs. CYP1A2 activity was detected using the P450-Glo CYP1A2 Induction/Inhibition Assay kit (Promega, Cat. no. V8422). […] Assays were performed according to the manufacturer's instructions for non-lytic P450-Glo assays using cultured cells in monolayers. […] Briefly, cells were cultured to day 20 of the differentiation protocol and Rifampicin or Omeprazole was added to L-15 culture medium, which was formulated as described above, but without dexamethasone or hydrocortisone. […] Briefly, for CYP1 A2 the substrate Luciferin-1A2 was diluted to 6 μM in PBS (calcium/magnesium free) containing 3 mM freshly prepared salicylamide (Sigma). The Luciferin substrate was added to each well (1 ml per well of a 6 well plate), and incubated for 60 minutes followed by detection. […] Basal activity was assessed as above with the omission of inducers. In addition, no cell media controls were included. Finally as a negative control, the pluripotent hESC line H1 was assayed for CYP activity as described above. All data was normalised to total protein content in each well. Data is presented as the mean values of 6 independent experiments; error bars represent standard deviation.

H1 smHLCs = test: Uptake of indocyanine green; settings: 1 mg/ml, 1 hour; phase microscopy
Procedure: In order to assess glycogen storage, differentiated cells were fixed and treated with a periodic acid-Schiff staining kit (Sigma-Aldrich) in accordance with manufacturer's instructions and imaged using a Zeiss phase contrast microscope and ZEN software. The scale bars represent 100 μm. The cellular uptake of indocyanine green was assessed. Briefly, ICG (Sigma-Aldrich) was reconstituted in water and used at a final concentration of 1 mg/ml. Cells were incubated in media supplemented with ICG for 1 hour, the cells were then washed with PBS and imaged using a Zeiss phase contrast microscope and ZEN software.

[6] = all lines (207, Detroit RA, RB, RC), 4 μM in RPMI-B27 minus insulin, 48 hours

For `O=C1Nc2cc(Br)ccc2/C1=C1/Nc2ccccc2/C1=N\O` [BIO, (2′Z,3′E)-6-Bromoindirubin-3′-oxime], which “Expression of DE proteins FOXA2 and SOX17 by immunofluorescence” value (hESC line H1 [1]) is on record?
The value was “produce FOXA2/SOX17 positive cells”.

What does the source list for `Cc1c[nH]c(-c2cnc(NCCNc3ccc(C#N)cn3)nc2-c2ccc(Cl)cc2Cl)n1` [CHIR99021]?
Phase I differentiation under H1 conditions ([2]; 3 μM, 24 hour treatment, then 24 hours RPMI-B27): very inefficient; FOXA2 positive cells at Phase I endpoint [2, 6]: 81%-84%; SOX17 positive cells at Phase I endpoint [2, 6]: 79%-82%; Optimal concentration for Phase I differentiation ([2]; titration 1-10 μM in RPMI-B27±insulin, optimum in RPMI-B27 minus insulin): 4 µM; Time to rapid upregulation of NODAL after exposure (hESC line H1 [3]; 3 μM): ≤ 4 h; SOX7 levels (primitive endoderm marker) during Phase I (hESC line H1 [3]; 3 μM 24 hour, then 24 hours RPMI-B27): No upregulation; Expression of DE proteins FOXA2 and SOX17 by immunofluorescence (hESC line H1 [1]): equivalent co-expression; Induction of SOX17 and FOXA2 in 3D over 2D differentiation [4]: an order of magnitude induction

`C[C@@H]1C[C@H]2[C@@H]3CCC4=CC(=O)C=C[C@]4(C)[C@@]3(F)[C@@H](O)C[C@]2(C)[C@@]1(O)C(=O)CO` [DEX, dexamethasone] was tested. Which “Optimal concentration for hepatic maturation” value (hepatic progenitors) did it give?
The value was 100 nM.

`C[S+](C)[O-]` [DMSO, Dimethylsulfoxide] was tested. Which “Efficiency based on AFP/HNF4A co-expression” value [5] did it give?
Its value is 86%-89%.

With `CCCCCC(=O)N[C@@H](Cc1ccc(O)cc1)C(=O)N[C@H](C(=O)NCCCCCC(N)=O)[C@@H](C)CC` [Dihexa, N-hexanoic-Tyr, Ile-(6) aminohexanoic amide] (Hexanoyl-Tyr-Ile-[Ahx]-NH2) as the compound, how does the “Optimal concentration for hepatic maturation” value (hepatic progenitors) read?
Its value is 100 nM.

With `COc1ccc2[nH]c([S+]([O-])Cc3ncc(C)c(OC)c3C)nc2c1` (stereo not drawn) [Omeprazole] as the compound, how does the “Induction of CYP1A2 activity in smHLCs” value (CYP1A2) read?
Its value is “significant induction”.

Which “Cellular uptake in smHLCs” value (H1 smHLCs) does the source give for `CC1(C)C(/C=C/C=C/C=C/C=C2\N(CCCCS(=O)(=O)O)c3ccc4ccccc4c3C2(C)C)=[N+](CCCCS(=O)(=O)[O-])c2ccc3ccccc3c21` [indocyanine green] here?
The value was “ICG positive cells were clearly visible”.

For Wnt3a, which “Expression of DE proteins FOXA2 and SOX17 by immunofluorescence” value (hESC line H1 [1]) is on record?
The value was “sufficient to produce populations of cells that expressed the DE markers FOXA2 and SOX17”.
